Results taken from patent US6335320B1, “Method of treating fibrotic conditions” (UCB S.A., priority 1998, dated 2002).
No end group written: not given here.

Assays:
anti-alpha SM-1 = conditions: cited from earlier work
splinted wound = experiment: Open splinted wound contraction model in rats; assay type: in vivo, rat; conditions: topical
Text: Test upon an open “splinted Wound” in Rats
In order to measure exclusively contraction, the inventors have developed the “splinted wound” model, based upon the technique of Gabbiani G. et al., J. of Exp.
The wound 2×2 cm in the back of the rat is fixed by suturing its margins to a plastic frame using suture thread (Supramid, metric 3, Braun, Emmenbrücke) on day 0. […] The peptidic product is applied on the open wound starting at the 7th day usually for 3 days and releases the suture of the frame, thus allowing an accelerated contraction which in controls reduces the area of the wound of about ⅔ within 48 hours.
We have measured morphometrically the contraction of the wound (5 rats per group) by means of planimetry (KS 400, Zeiss Vision) and studied the tissues morphologically by means of histological techniques, immunofluorescence with the α-SM actin antibody according to a method described in Gabbiani et al., J. Exp. Med. 1972 (p.15, line 8) and Darby et al. Lab. Invest. 1990 (p.1, line 24-25).
Table 3 presents the wound size (surface in cm^2) measured on day 3 as a percentage of the wound size measured on day 0.
The rats were treated with the peptidic product of example 1 at a dose of 3 mg/ml (mg of peptidic product, ml of 0.9% NaCl).

α-SM actin = experiment: Effect on α-SM actin biosynthesis (S35 methionine incorporation) in VSMC; assay type: cell-based, rat; conditions: for α-SM actin synthesis, control standardised at 100%: 2 mg/ml, VSMC, 37° C.
Experimental: In this table, the values of the control conditions were standardised at a 100% starting value (time=0 hour).

SM cells = conditions: culture of SM cells, microinjection; cited from earlier work

## AcEEEDSTALVC (Ac-EEEDSTALVC) [amino terminal decapeptide of α-SM actin]
anti-alpha SM-1
  blocking effects on the binding of monoclonal antibody anti-alpha SM-1: blocking effects

## ε-(Acetyl Glu Glu Glu Asp) Lys Arg Gln Ile Lys Ile Trp Phe Gln Asn Arg Arg Met Lys Trp Lys Lys OH [example 1, ε-(AcEEED)-K-(pAntp[43-58])]
Splinted wound; 3 mg/ml
  contractile activity of the wound: decrease in contractile activity
Splinted wound; 3 mg/ml in 0.9% NaCl, 5 rats per group
  Wound surface: wound size on day 3 as a percentage of the wound size on day 0: 48.42 ± 2.02%
α-SM actin; Experiment 1, 20 hours
  α-SM actin synthesis, control standardised at 100%: 72%
α-SM actin; Experiment 2, 20 hours
  α-SM actin synthesis, control standardised at 100%: 56%
α-SM actin; Experiment 3, 20 hours
  α-SM actin synthesis, control standardised at 100%: 44%
α-SM actin; Experiment 4, 20 hours
  α-SM actin synthesis, control standardised at 100%: 48%
α-SM actin; Mean of 4 experiments, 20 hours
  α-SM actin synthesis, control standardised at 100%: 55%
α-SM actin; mean value for the 4 experiments, 2 mg/ml culture medium
  decrease of the α-SM actin synthesis compared to control conditions: 55%

## Acetyl-glutamyl-glutamyl-glutamyl-aspartyl (Ac-EEED) [AcEEED]
SM cells
  incorporation of α-SM actin into stress fibers: inhibits the incorporation of α-SM actin into stress fibers
